Source: publication PMC9458217, “Synthesis and Biological Evaluation of Cassane Diterpene (5α)-Vuacapane-8(14), 9(11)-Diene and of Some Related Compounds” (Molecules, 2022)
Values after ≈ are worked out from the molar mass of the structure shown. Values joined by “and” are separate entries in the source; they are usually repeats but may differ in a detail not shown here. Equal entries are not always repeated. Where two headings read alike, the source gives them in different places.

Assays:
[1] = test system: HT29 human colorectal adenocarcinoma cell line; test: MTT cytotoxicity on HT29 cells; conditions: HT-29, 72 h
Protocol: (§2) These studies were performed using the MTT assay, based on formazan dye formation and expressed as a percentage with respect to untreated control cells (100% of cell metabolism).
(§3) The effect of compounds on the cell viability was determined by the MTT method [27] (Sigma, St. Louis, MO, USA). The cytotoxicity of the compounds was detected by measuring the absorbance of MTT dye staining of cells with metabolism capacity. […] Finally, after 72 h, 100 μL of MTT solution (0.5 mg/mL) in 50% of PBS and 50% of the medium was added to each well. After 1.5 h of incubation, formazan was re-suspended in 100 μL of DMSO, and each concentration was tested in triplicate.
(§4) Experimental cytotoxicity data were fitted to a sigmoidal function (y = ymax/ (x/a)^−b) by non-linear regression. […] All shown data are representative of at least two independent experiments performed in triplicate. All quantitative data were summarized as the means ± standard deviation (SD).

[2] = test system: LPS-stimulated RAW 264.7 murine macrophage cells; test: Inhibition of NO production (nitrite, Griess reaction) in LPS-stimulated RAW 264.7 cells; assay type: cell-based; conditions: for IC50 NO / IC50: LPS-activated RAW 264.7, 72 h of incubation; for IC50: Mus musculus, RAW264.7, 72 h; for NO inhibition: 72 h
Protocol: The activation of the inflammatory process induces nitric oxide, NO, released as a second messenger. NO production can be used as the main indicator to assess inflammatory activity, which can be measured using nitrite (NO^2–) quantification (proportional to the released NO), determined through the Griess reaction. […] Inhibition percentages were calculated with respect to the increase between positive control (only LPS treated control cells) and negative control (untreated control cells).
The absorbance was referred to nitrite standard curve to determine the concentration of nitrite in the supernatant of each experimental sample. The percentage of NO production was determined, assigning 100% at the increase between negative control (untreated cells) and positive control (cells only treated with 10 μg/mL of LPS).
(§1) Experimental cytotoxicity data were fitted to a sigmoidal function (y = ymax/ (x/a)^−b) by non-linear regression. […] Similar analyses were performed to obtain the IC50 of NO production (IC50 NO). All shown data are representative of at least two independent experiments performed in triplicate. All quantitative data were summarized as the means ± standard deviation (SD).

[3] = test system: B16-F10 mouse melanoma cells; test: MTT cytotoxicity on B16-F10 cells
Protocol: as §2, §3, §4

[4] = test system: HepG2 human hepatocarcinome cell-line; test: MTT cytotoxicity on HepG2 cells; conditions: HepG2, 72 h
Protocol: as §2, §3, §4

[5] = test system: RAW 264.7 cells, activated by LPS; test: Cell cycle distribution of LPS-activated RAW 264.7 cells, flow cytometry with PI; assay type: cell-based, murine
Protocol: The cell-cycle distribution was analyzed by flow cytometry with propidium iodide (IP) staining (Figure 3). Significant growth arrest of the cell cycle in LPS-induced RAW 264.7 cells produced 100% detention in the G0/G1 phase (positive control) compared to the negative control (49.6%). After incubation with compound 20, the percentage of cells found in the G0/G1 phase was 29%, 32%, and 36%, respectively, at the assayed concentrations. Similar results were found for compound 16 (35%, 38%, and 39%) after 72 h of incubation at the same concentrations. This decrease was accompanied by the consequent increase in the number of cells in the S phase: 70%, 68%, and 56%, respectively, for compound 20, and 63%, 61%, and 59% for compound 16. […] This recovery of the cell cycle with respect to control cells (only LPS treated) could be a consequence of the anti-inflammatory effect produced by the tested compounds, which increase cell division, rescuing RAW 264.7 cells from LPS-induced arrest during their monocyte/macrophage differentiation process.
DNA content is directly proportional to the PI fluorescence; it allows us to determine the percentage of cells in each cell cycle phase. Using a fluorescence-activated cell sorter (FACS) at 488 nm in an Epics XL flow cytometer (Coulter Corporation, Hialeah, FL, USA), cell subpopulations could be visualized with different DNA contents. […] By treating cells only with LPS, the positive control was performed. However, the negative control was prepared, exposing cells […]. After treatment, cells were washed twice with PBS and trypsine solution, then resuspended in TBS 1X (10 Mm Tris, 150 Mm NaCl) and then Vindelov buffer (100 mM Tris, 100 Mm NaCl, 10 mg/mL Rnasa, 1 mg/mL PI, pH 8) was added. The samples were placed for 15 min on ice. Immediately before FACS analysis, cells were stained with 20 μL of 1 mg/mL PI solution. Data were analyzed to determine the percentage of cells in each cell cycle phase (G0/G1, S, and G2/M).

[6] = test system: RAW 264.7 monocyte/macrophage murine cells; test: MTT cytotoxicity on RAW 264.7 cells; assay type: cell-based; conditions: Mus musculus
Protocol: MTT is transformed to formazan in cells with metabolism capacity (viable cells), as the number of viable cells is proportional to formazan concentration; this assay was used to determine the cytotoxicity of the compounds.
In all experiments, subconfluent monolayer cells were used.
The effect of compounds on the cell viability was determined by the MTT method (Sigma, St. Louis, MO, USA). The cytotoxicity of the compounds was detected by measuring the absorbance of MTT dye staining of cells with metabolism capacity. […] Finally, after 72 h, 100 μL of MTT solution (0.5 mg/mL) in 50% of PBS and 50% of the medium was added to each well. After 1.5 h of incubation, formazan was re-suspended in 100 μL of DMSO, and each concentration was tested in triplicate.
as §1

[7] = test system: LPS-induced J774.A1 macrophage cells; set-up: method as in PMID 34990974; conditions: 50 μM, natural compounds; cited from earlier work
[8] = RAW264.7, RAW 264.7, MTT, 72 h of incubation, 20% cell viability inhibition, read-out: IC20
[9] = RAW264.7, RAW 264.7, MTT, 72 h of incubation, read-out: IC50
[10] = RAW264.7, RAW 264.7, MTT, 72 h of incubation, 80% cell viability inhibition, read-out: IC80

Row | Compound | IC50 ([1]; HT29, MTT, 72 h) [µg/mL] | IC50 [2] [µg/mL] | NO inhibition ([2]; at ¾ IC50 concentration) | IC50 ([3]; 72 h) | IC50 ([3]; Mus musculus, B16-F10, 72 h) [µg/mL] | IC50 [4] [µg/mL] | IC20 [6, 8] [µg/mL] | IC50 [6, 9] [µg/mL] | IC80 [6, 10] [µg/mL] | other results
1 | COC(=O)C1=C(C(=O)OC)C2(C)CC[C@H]3C(C)(C)CCC[C@]3(C)C2=CC1=O (some centres unmarked) [Compound 16] | 11.9 ± 0.8 (≈ 31.8 µM) | 2.98 ± 0.04 (≈ 7.96 µM) | 100% | 6.01 ± 0.41 µg/mL (≈ 16 µM) | < 10 | 26.7 ± 0.88 (≈ 71.4 µM) | 14.5 ± 0.68 (≈ 38.7 µM) | 26.7 ± 0.88 (≈ 71.4 µM) |  | IC50 NO [2]: 5.71 ± 0.14 µg/mL (≈ 15.2 µM); NO inhibition ([2]; at ¼ IC50 concentration): 100%; NO inhibition ([2]; at ½ IC50 concentration): 100%; cells in the S phase ([5]; ¼ IC50, 72 h): 63%; percentage of cells in the G0/G1 phase ([5]; ¼ IC50, 72 h, LPS control 100%, negative control 49.6%): 35%; changes in the G2/M phase ([5]; ¼, ½ and ¾ IC50, 72 h): not significant; cells in the S phase ([5]; ½ IC50, 72 h): 61%; percentage of cells in the G0/G1 phase ([5]; ½ IC50, 72 h): 38%; cells in the S phase ([5]; ¾ IC50, 72 h): 59%; percentage of cells in the G0/G1 phase ([5]; ¾ IC50, 72 h): 39%
2 | Cc1c(CO)c(O)cc2c1CC[C@H]1C(C)(C)CCC[C@]21C [Compound 19] | 49 ± 0.72 (≈ 170 µM) | 27.57 ± 0.2 (≈ 95.6 µM) |  |  | 48.8 ± 2.79 (≈ 169 µM) | 12.2 ± 1.78 (≈ 42.4 µM) | 70.83 ± 0.28 (≈ 246 µM) | 74.65 ± 0.17 (≈ 259 µM) | 78.94 ± 0.28 (≈ 274 µM) | 
3 | Cc1c2c(cc3c1CC[C@H]1C(C)(C)CCC[C@]31C)OC(=O)C2 [Compound 5, pterolobirin H] |  |  |  |  |  |  |  |  |  | IC20 ([6]; RAW264.7, 72 h): 34.9 ± 2.11 µg/mL (≈ 117 µM); IC80 ([6]; RAW264.7, 72 h): 64.2 ± 3.29 µg/mL (≈ 215 µM)
4 | COC(=O)c1c(O)cc2c(c1C)CC[C@H]1C(C)(C)CCC[C@]21C [Compound 18] | 30.7 ± 0.49 (≈ 96.9 µM) | 31.4 ± 4.9 (≈ 99.1 µM) | 11.06% | 5.96 ± 0.35 µg/mL (≈ 18.8 µM) | < 10 | 13.57 ± 0.12 (≈ 42.9 µM) | 7.32 ± 2.53 (≈ 23.1 µM) | 13.1 ± 1.51 (≈ 41.4 µM) | 20.4 ± 0.26 (≈ 64.4 µM) | 
5 | COC(=O)C1=C(C(=O)OC)C2(C)CC[C@H]3C(C)(C)CCC[C@]3(C)C2=CC1 (some centres unmarked) [Compound 15] | 25.3 ± 0.89 (≈ 70.2 µM) | 7.98 ± 0.1 (≈ 22.1 µM) |  |  | 13 ± 1.8 (≈ 36.1 µM) | 58.32 ± 0.32 (≈ 162 µM) | 43.7 ± 2.37 (≈ 121 µM) | 64.6 ± 1.39 (≈ 179 µM) | 83.67 ± 0.64 (≈ 232 µM) | 
6 | COC(=O)c1ccc2c(c1C(=O)OC)CC[C@H]1C(C)(C)CCC[C@]21C [Compound 14] | 15.4 ± 2.72 (≈ 44.8 µM) | 10.7 ± 1.14 (≈ 31.1 µM) |  | 9.25 ± 0.74 µg/mL (≈ 26.9 µM) | < 10 | 33.8 ± 0.8 (≈ 98 µM) | 22.92 ± 0.13 (≈ 66.5 µM) | 24.67 ± 0.04 (≈ 71.6 µM) | 26.89 ± 0.02 (≈ 78.1 µM) | 
7 | CC1(C)CCC[C@]2(C)c3cc(O)c(CO)cc3CC[C@@H]12 [Compound 24] | 17.4 ± 1.97 (≈ 63.5 µM) | 15.2 ± 2.13 (≈ 55.4 µM) | did not cause any inhibition of NO release |  | 10.51 ± 0.01 (≈ 38.3 µM) | 24.2 ± 2.71 (≈ 88.3 µM) | 9.09 ± 0.03 (≈ 33.1 µM) | 13.94 ± 0.07 (≈ 50.8 µM) | 20.8 ± 0.48 (≈ 75.6 µM) | 
8 | CC1(C)CCC[C@]2(C)c3cc4c(cc3CC[C@@H]12)CC(=O)O4 [Compound 25] | 74.3 ± 2.19 (≈ 261 µM) | 22.58 ± 0.05 (≈ 79.4 µM) | 72.24% |  | 74.3 ± 2.19 (≈ 261 µM) | 77.97 ± 0.72 (≈ 274 µM) | 42.6 ± 0.74 (≈ 150 µM) | 53.92 ± 0.36 (≈ 190 µM) | 66.33 ± 0.35 (≈ 233 µM) | 
9 | Cc1c2c(cc3occc13)[C@@]1(C)CCCC(C)(C)[C@@H]1CC2 [Compound 7, (5a)-vouacapane-8(14),9(11)-diene] |  |  |  |  | 31.7 ± 1.1 (≈ 112 µM) | 14 ± 0.5 (≈ 49.4 µM) |  |  |  | IC50 [1]: 20.7 ± 1.09 µg/mL (≈ 73.2 µM); inhibition of NO production [7]: did not show any significant inhibition of NO production; IC20 ([6]; RAW264.7, 72 h): 50.9 ± 1.61 µg/mL (≈ 180 µM); IC50 ([6]; RAW264.7, 72 h): 57.5 ± 1.06 µg/mL (≈ 204 µM); IC80 ([6]; RAW264.7, 72 h): 65.5 ± 0.95 µg/mL (≈ 232 µM)
10 | CC1(C)CCC[C@]2(C)c3cc(O)c(C=O)cc3CC[C@@H]12 [Compound 23] | 5.19 ± 0.17 (≈ 19.1 µM) | 3.22 ± 0.05 (≈ 11.8 µM) | 78.48% |  | 4.33 ± 0.27 (≈ 15.9 µM) | 8.36 ± 1.77 (≈ 30.7 µM) | 5.13 ± 0.18 (≈ 18.8 µM) | 5.87 ± 0.18 (≈ 21.6 µM) | 6.8 ± 0.24 (≈ 25 µM) | IC50 NO [2]: 3.32 ± 0.05 µg/mL (≈ 12.2 µM)
11 | COC(=O)c1c(O)cc2c(c1C(=O)OC)CC[C@H]1C(C)(C)CCC[C@]21C [Compound 17] | 5.96 ± 0.55 (≈ 16.5 µM) | 4.74 ± 1.27 (≈ 13.2 µM) | 30.52% | 5.96 ± 0.55 µg/mL and 5.97 ± 0.55 µg/mL | < 10 | 8.15 ± 0.1 (≈ 22.6 µM) | 4.95 ± 0.13 (≈ 13.7 µM) | 7.49 ± 0.86 (≈ 20.8 µM) | 11.8 ± 2.97 (≈ 32.7 µM) | 
